Reference: patent US6803195B1, “Facile detection of cancer and cancer risk based on level of coordination between alleles” (Ramot At Tel-Aviv University Ltd., priority 1999, dated 2004)

Experiments:
Format in all cases: cell-based, human
[1] = tested on: CON samples (healthy individuals); assay: FISH replication assay, cultures of healthy individuals (CON) with chromatin modifiers (Example 10); conditions: for frequency (%) of SD cells, Mean: CON + AZA (10^-7M), N = 20
Source text: (§1) Cultures were set up from 44 healthy individuals (hereafter called CON) and 20 hematological malignancy patients at diagnosis (hereafter termed CAD). For 20 of the CON samples and all of the CAD samples peripheral in addition to the setting up cultures in the regular growth medium, cultures were set up in medium containing 5-azacytidine (10^−7M; Sigma, USA; hereafter referred to as AZA) a demethylating agent. In addition, cultures from 6 CON and 10 CAD samples were set up in medium containing a deacetylating agents, either Trichostatin A (33 nM; Sigma, USA; hereafter referred to as TSA) or Sodium Butirate (1 nM; Sigma, USA; hereafter referred to as NB), two well described acetylating agents.
(§2) These samples were hybridized with two commercial probes: the AML1 probe (LSI 21, […]) and the α-satellite probe specific for centromere 17 (32-130017, hereafter marked as CEN17). The results are summarized in Table 1 giving the number of samples hybridized with each probe (N), Mean and standard deviation (stdev) as well as the p value obtained using two tailed student's t-test (Microsoft Office 98).

[2] = tested on: CAD samples (hematological malignancy patients at diagnosis); assay: FISH replication assay, cultures of hematological malignancy patients (CAD) with chromatin modifiers (Example 10); conditions: for frequency (%) of SD cells, Mean: CAD + AZA (10^-7M), N = 20
Source text: as §1, §2

[3] = tested on: PHA-stimulated lymphocytes, chromosome 21, 13, 17 and 15; assay: FISH analysis of chromosome losses and gains with and without 5-azacytidine (Example 6); conditions: cancerous samples 1-15, presence vs absence of AZA
Protocol: Each subject donated five ml of peripheral blood. Cell cultures of PHA-stimulated lymphocytes were set up according to standard protocol (Rooney and Czepulkowsli, 1992). Briefly, 0.5 ml of peripheral blood was introduced into a 15 ml test tube containing 5ml F-10 medium supplemented with 20% fetal calf serum, 0.2% heparin, 1% penicillin/streptomycin antibiotic solution (Biological industries, Israel) and 3% phytohemagglutinin (PHA). In addition, all the 15 samples derived from the hematological patients (samples 1-15) and 15 of the 41 samples derived from non-cancerous subjects (samples 16-30) were also grown in the presence of 10^−7M 5-azacytidine (AZA; Sigman, USA) added to the other ingredients described above.
For the analyses of chromosome losses and gains, at least 200 cells following one-color FISH with each of the chromosome enumerating probes (AML1, RB1, CEN17 and CEN15) were scored for each tested sample, employing the same preparation used for evaluating allelic replication timing. The frequency of cells containing a single signal was used to evaluate the extent of chromosome losses and the frequency of cells with three or more signals were used to assess the level of chromosome gains.
The mean SD value of five loci (TP53, AML1, RB1, CEN17 and CEN15) and the mean losses and gains value of four loci (AML1, RB1, CEN17 and CEN15) represent each sample. […]

[4] = tested on: lymphocytes of control subjects (BPH); assay: FISH replication assay, lymphocytes of benign prostate hyperplasia (BPH) subjects grown with 5-azacytidine (Example 7); conditions: BPH samples; all tested loci; 10^-7M AZA
Protocol: Each sample was set up for short-term culturing in F10 medium supplemented with 20% fetal calf serum (FCS), 3% phytohemagglutinin (PHA), 0.2% heparin, and 1% antibiotics (a standard solution of penicillin and streptomycin). Cultures were incubated at 37° C. for 72 hours and then colchicine (final concentration 0.1 μg/ml) was added to the culture for one hour, followed by hypotonic treatment (0.075 M KC1 at 37° C. for 15 minutes) and four washes each with a fresh cold 3:1 methanol: acetic acid solution. The cell suspensions were stored at −20° C. until used for fluorescence in situ hybridization (FISH). […]
Slides were analyzed blindly on an Olympus BH2 fluorescent microscope, using a triple band-pass filter (Chroma technology). […] For each sample and for each treatment the frequency of SD, SS and DD cells out of the total population of cells containing two fluorescent signals was recorded (for details please see Dotan et al, Genes, Chromosomes & Cancer 27:270-277, 2000). For the determination of allelic losses at least 200 cells from the same preparation used for replication studied were analyzed for each tested sample.

[5] = cultured cells with chromatin modifier

Nc1ncn([C@@H]2O[C@H](CO)[C@@H](O)[C@H]2O)c(=O)n1 [AZA, 5-azacytidine]
frequency (%) of SD cells, Mean ([1]; AML1 locus): Mean = 21.5% | frequency (%) of SD cells, Mean ([1]; CEN17 locus): Mean = 20.9% | replication pattern observed in normal genomes [1, 5]: not affecting | frequency (%) of SD cells, Mean ([2]; AML1 locus): Mean = 25.3% | frequency (%) of SD cells, Mean ([2]; CEN17 locus): Mean = 22.7% | replication pattern in cells derived from cancer patients [2, 5]: attenuate the replication pattern presented in cells derived from cancer patients towards the normal | losses and gains values (mean of AML1, RB1, CEN17 and CEN15) [3]: unchanged | effect of AZA on the SD values [4]: no significant effect
